Patent US20060014790A1, “Methods of treatment of amyloidosis using spirocyclohexane aspartyl-protease inhibitors” (priority 2004, published 2006)
Several values for one entry are separate records, joined by “and”; a condition that tells them apart may be missing. Identical values can stand only once.

Assays:
[1] = target: catE / beta-secretase (BACE); test: CatE/BACE selectivity (ratio of IC50 values); type: biochemical; conditions: each value is an average of four experimental runs; multiple values = more than one experiment
Procedure: (§1) Selectivity was calculated as a ratio of inhibition (IC50) values in which the inhibition of beta-secretase was compared to the inhibition of other aspartyl proteases.
Selectivity is reported as the ratio of IC50(catE):IC50(BACE).
(§2) In the following examples, each value is an average of four experimental runs and multiple values for one compound indicate that more than one experiment was conducted.

[2] = target: catD / beta-secretase (BACE); test: CatD/BACE selectivity (ratio of IC50 values); type: biochemical; conditions: each value is an average of four experimental runs; multiple values = more than one experiment
Procedure: as §1, §2

SMILES	IC50 catE/IC50 BACE [1]	IC50 catD/IC50 BACE [2]
COC1CCC(NCC(O)C(Cc2cc(F)cc(F)c2)NC(C)=O)(c2cccc(C(C)(C)C)c2)CC1 (single isomer, unassigned) [196B-3 Diastereomer A, N-[3-[1-(3-tert-Butyl-phenyl)-4-methoxy-cyclohexylamino]-1-(3,5-difluoro-benzyl)-2-hydroxy-propyl]-acetamide]	1.8 and 1.5	–
COC1CCC(NCC(O)C(Cc2cc(F)cc(F)c2)NC(C)=O)(c2cccc(C(C)(C)C)c2)CC1 (single isomer, unassigned) [196B-4 Diastereomer B, N-[3-[1-(3-tert-Butyl-phenyl)-4-methoxy-cyclohexylamino]-1-(3,5-difluoro-benzyl)-2-hydroxy-propyl]-acetamide]	1.5	–
CONC1CCC(NCC(O)C(Cc2cc(F)cc(F)c2)NC(C)=O)(c2cccc(C(C)(C)C)c2)CC1 (single isomer, unassigned) [196B-11 Diastereomer A, N-(4-(1-(3-tert-butylphenyl)-4-(methoxyamino)cyclohexylamino)-1-(3,5-difluorophenyl)-3-hydroxybutan-2-yl)acetamide]	7.4	–
CONC1CCC(NCC(O)C(Cc2cc(F)cc(F)c2)NC(C)=O)(c2cccc(C(C)(C)C)c2)CC1 (single isomer, unassigned) [196B-12 Diastereomer B, N-(4-(1-(3-tert-butylphenyl)-4-(methoxyamino)cyclohexylamino)-1-(3,5-difluorophenyl)-3-hydroxybutan-2-yl)acetamide]	12.5	–
CSC1CCC(NCC(O)C(Cc2cc(F)cc(F)c2)NC(C)=O)(c2cccc(C(C)(C)C)c2)CC1 (single isomer, unassigned) [196B-14 Diastereomer A, N-[3-[1-(3-tert-Butyl-phenyl)-4-methylsulfanyl-cyclohexylamino]-1-(3,5-difluoro-benzyl)-2-hydroxy-propyl]-acetamide]	5.5 and 3.4 and 2.9	–
CSC1CCC(NCC(O)C(Cc2cc(F)cc(F)c2)NC(C)=O)(c2cccc(C(C)(C)C)c2)CC1 (single isomer, unassigned) [196B-15 Diastereomer B, N-[3-[1-(3-tert-Butyl-phenyl)-4-methylsulfanyl-cyclohexylamino]-1-(3,5-difluoro-benzyl)-2-hydroxy-propyl]-acetamide]	2.4 and > 2.5 and 2.3	–
CNC1CCC(NCC(O)C(Cc2cc(F)cc(F)c2)NC(C)=O)(c2cccc(C(C)(C)C)c2)CC1 (single isomer, unassigned) [196B-16 Diastereomer A, N-(4-(1-(3-tert-butylphenyl)-4-(methylamino)cyclohexylamino)-1-(3,5-difluorophenyl)-3-hydroxybutan-2-yl)acetamide]	>4.7	–
CNC1CCC(NCC(O)C(Cc2cc(F)cc(F)c2)NC(C)=O)(c2cccc(C(C)(C)C)c2)CC1 (single isomer, unassigned) [196B-17 Diastereomer B, N-(4-(1-(3-tert-butylphenyl)-4-(methylamino)cyclohexylamino)-1-(3,5-difluorophenyl)-3-hydroxybutan-2-yl)acetamide]	1.8	–
CC(=O)NC(Cc1cc(F)cc(F)c1)C(O)CNC1(c2cccc(C(C)(C)C)c2)CCC(N)CC1 (single isomer, unassigned) [196B-18 Diastereomer A, N-(4-(1-(3-tert-butylphenyl)-4-aminocyclohexylamino)-1-(3,5-difluorophenyl)-3-hydroxybutan-2-yl)acetamide]	>8.4	–
CC(=O)NC(Cc1cc(F)cc(F)c1)C(O)CNC1(c2cccc(C(C)(C)C)c2)CCC(N)CC1 (single isomer, unassigned) [196B-19 Diastereomer B, N-(4-(1-(3-tert-butylphenyl)-4-aminocyclohexylamino)-1-(3,5-difluorophenyl)-3-hydroxybutan-2-yl)acetamide]	>8.4	–
CC(=O)NC(Cc1cc(F)cc(F)c1)C(O)CNC1(c2cccc(C(C)(C)C)c2)CCC(C(F)(F)F)CC1 (single isomer, unassigned) [196B-21 Diastereomer A, N-(4-(1-(3-tert-butylphenyl)-4-(trifluoromethyl)cyclohexylamino)-1-(3,5-difluorophenyl)-3-hydroxybutan-2-yl)acetamide]	6.4	–
CC(=O)NC(Cc1cc(F)cc(F)c1)C(O)CNC1(c2cccc(C(C)(C)C)c2)CCC(C(F)(F)F)CC1 (single isomer, unassigned) [196B-22 Diastereomer B, N-(4-(1-(3-tert-butylphenyl)-4-(trifluoromethyl)cyclohexylamino)-1-(3,5-difluorophenyl)-3-hydroxybutan-2-yl)acetamide]	2.5	–
CC(=O)NC1CCC(NCC(O)C(Cc2cc(F)cc(F)c2)NC(C)=O)(c2cccc(C(C)(C)C)c2)CC1 (single isomer, unassigned) [196B-23 Diastereomer A, N-[3-[4-Acetylamino-1-(3-tert-butyl-phenyl)-cyclohexylamino]-1-(3,5-difluoro-benzyl)-2-hydroxy-propyl]-acetamide]	29.5	–
CC(=O)NC(Cc1cc(F)cc(F)c1)C(O)CNC1(c2cccc(C(C)(C)C)c2)CCC([S+](C)[O-])CC1 (single isomer, unassigned) [196B-24 Diastereomer B, N-(4-(1-(3-tert-butylphenyl)-4-(methylsulfinyl)cyclohexylamino)-1-(3,5-difluorophenyl)-3-hydroxybutan-2yl)acetamide]	3.0	–
CC(=O)NC(Cc1cc(F)cc(F)c1)C(O)CNC1(c2cccc(C(C)(C)C)c2)CCC([S+](C)[O-])CC1 (single isomer, unassigned) [196B-25 Diastereomer A, N-(4-(1-(3-tert-butylphenyl)-4-(methylsulfinyl)cyclohexylamino)-1-(3,5-difluorophenyl)-3-hydroxybutan-2yl)acetamide]	1.1	–
CC(=O)NC(Cc1cc(F)cc(F)c1)C(O)CNC1(c2cccc(C(C)(C)C)c2)CCC(O)(CO)CC1 (single isomer, unassigned) [196B-27 Diastereomer B, N-[3-[1-(3-tert-Butyl-phenyl)-4-hydroxy-4-hydroxymethyl-cyclohexylamino]-1-(3,5-difluoro-benzyl)-2-hydroxy-propyl]-acetamide]	>5.3	–
CC(=O)NC(Cc1cc(F)cc(F)c1)C(O)CNC1(c2cccc(C(C)(C)C)c2)CCC(O)(CO)CC1 (single isomer, unassigned) [196B-28 Diastereomer A, N-[3-[1-(3-tert-Butyl-phenyl)-4-hydroxy-4-hydroxymethyl-cyclohexylamino]-1-(3,5-difluoro-benzyl)-2-hydroxy-propyl]-acetamide]	>7.4	–
COC(=O)NC1CCC(NCC(O)C(Cc2cc(F)cc(F)c2)NC(C)=O)(c2cccc(C(C)(C)C)c2)CC1 (single isomer, unassigned) [196B-29 Diastereomer A, methyl 4-(3-acetamido-4-(3,5-difluorophenyl)-2-hydroxybutylamino)-4-(3-tert-butylphenyl)cyclohexylcarbamate]	13.1	–
CC(=O)NC(Cc1cc(F)cc(F)c1)C(O)CNC1(c2cccc(C(C)(C)C)c2)CCC(N(O)C(C)=O)CC1 (single isomer, unassigned) [196B-31 Diastereomer A, N-(4-(3-acetamido-4-(3,5-difluorophenyl)-2-hydroxybutylamino)-4-(3-tert-butylphenyl)cyclohexyl)-N-hydroxyacetamide]	13.0	–
CC(=O)NC(Cc1cc(F)cc(F)c1)C(O)CNC1(c2cccc(C(C)(C)C)c2)CCC(NS(C)(=O)=O)CC1 (single isomer, unassigned) [196B-35 Diastereomer B, N-(4-(1-(3-tert-butylphenyl)-4-(methylsulfonamido)cyclohexylamino)-1-(3,5-difluorophenyl)-3-hydroxybutan-2-yl)acetamide]	>3.0	–
CCS(=O)(=O)N1CCC(NCC(O)C(Cc2cc(F)cc(F)c2)NC(C)=O)(c2cccc(C(C)(C)C)c2)CC1 (centres unmarked) [Example 196A-15, N-[3-[4-(3-tert-Butyl-phenyl)-1-ethanesulfonyl-piperidin-4-ylamino]-1-(3,5-difluoro-benzyl)-2-hydroxy-propyl]-acetamide]	–	13.1
CC(=O)NC(Cc1cc(F)cc(F)c1)C(O)CNC1(c2cccc(-c3ccsc3)c2)CCC(=O)CC1 (centres unmarked) [Example 196A-19, N-(1-(3,5-difluorophenyl)-3-hydroxy-4-(4-oxo-1-(3-(thiophen-3-yl)phenyl)cyclohexylamino)butan-2-yl)acetamide]	–	4.4
CC(=O)NC(Cc1cc(F)cc(F)c1)C(O)CNC1(c2cccc(C(C)(C)C)c2)CCCN(C)C1 (centres unmarked) [Example 196A-40, N-(4-(3-(3-tert-butylphenyl)-1-methylpiperidin-3-ylamino)-1-(3,5-difluorophenyl)-3-hydroxybutan-2-yl)acetamide]	–	>2,0
CC(=O)NC(Cc1cc(F)cc(F)c1)C(O)CNC1(c2cccc(Br)c2)CCC2(CC1)OCCO2 (centres unmarked) [Example 196A-47, N-[3-[8-(3-Bromo-phenyl)-1,4-dioxa-spiro[4.5]dec-8-ylamino]-1-(3,5-difluoro-benzyl)-2-hydroxy-propyl]-acetamide]	–	1.7
CC(=O)NC(Cc1cc(F)cc(F)c1)C(O)CNC1(c2cccc(C(C)(C)C)c2)CCC(C#N)CC1 (centres unmarked) [Example 196A-48, N-[3-[1-(3-tert-Butyl-phenyl)-4-cyano-cyclohexylamino]-1-(3,5-difluoro-benzyl)-2-hydroxy-propyl]-acetamide]	–	1.7
CC(=O)NC(Cc1cc(F)cc(F)c1)C(O)CNC1(c2cccc(-c3ccsc3)c2)CCC(=O)CC1 (centres unmarked) [Example 196A-49, N-{1-(3,5-Difluoro-benzyl)-2-hydroxy-3-[4-oxo-1-(3-thiophen-3-yl-phenyl)-cyclohexylamino]-propyl}-acetamide]	–	4.4
